Test results: ChEMBL document CHEMBL4732115, “Discovery of novel cell-penetrating and tumor-targeting peptide-drug conjugate (PDC) for programmable delivery of paclitaxel and cancer treatment” (Eur J Med Chem, 2021)
Active and inactive are the calls of the source. The rule behind the calls is not given here. Peptide text beside a SMILES is read from it. * marks the point of attachment. X1 = CC(=O)O[C@H]1C(=O)[C@@]2(C)[C@H]([C@H](OC(=O)c3ccccc3)[C@]3(O)C[C@H](OC(=O)[C@H](OC(=O)OCCS*)[C@@H](NC(=O)c4ccccc4)c4ccccc4)C(C)=C1C3(C)C)[C@]1(OC(C)=O)CO[C@@H]1C[C@@H]2O; X2 = NCCCC[C@H](N*)C(=O)NC(=O)C1CCC(=O)N1

Key:
MCF7 [1] = experiment: Antitumor activity against human MCF7 cells xenografted in BALB/c nude mouse assessed as reduction in tumor volume at 12 umol/kg, ip administered every two days for two weeks relative to control; assay type: functional; design: scale not given: the % may be the effect or the level left; conditions: dose 12 µmol/kg; time 2 weeks
[2] = Myelosuppression in BALB/c mouse assessed as change in lymphocyte count at 12 umol/kg, ip administered every two days for 14 days measured post last dose; assay type: ADME, organism-based; conditions: in vivo, 336 h, dose 12 µmol/kg, time 14 day
[3] = Drug conversion in liver of BALB/c nude mouse xenografted with human MCF7 cells assessed as PTX formation at 8 to 12 umol/kg, ip measured after 2 hrs by LC-MS analysis; assay type: ADME, organism-based; conditions: in vivo, dose 8-12 µmol/kg
MCF7 [4] = experiment: Cytotoxicity against human MCF7 cells assessed as reduction in cell viability measured after 48 hrs in presence of LHRH by MTT assay; assay type: functional, cell-based
[5] = Neurotoxicity in BALB/c mouse assessed as increase in pain sensitivity at 12 umol/kg, ip administered every two days for 14 days by hot-plate test; assay type: toxicity, organism-based; conditions: in vivo, 336 h, dose 12 µmol/kg, time 14 day
[6] = Neurotoxicity in BALB/c mouse assessed as change in DOPAC level at 12 umol/kg, ip administered every two days for 14 days measured post last dose by LC-MS analysis; assay type: toxicity, organism-based; conditions: in vivo, 336 h, dose 12 µmol/kg, time 14 day
[7] = Toxicity in human MCF7 cells xenografted in BALB/c nude mouse assessed as morphological changes in heart at 8 to 12 umol/kg, ip administered every two days for two weeks measured post last dose by H and E staining based histological analysis; assay type: organism-based; conditions: in vivo, 336 h, dose 8-12 µmol/kg, time 2 weeks
[8] = Neurotoxicity in BALB/c mouse assessed as change in vanillylmandelic acid level at 12 umol/kg, ip administered every two days for 14 days measured post last dose by LC-MS analysis; assay type: toxicity, organism-based; conditions: in vivo, 336 h, dose 12 µmol/kg, time 14 day
Tubulin (Homo sapiens) = Tubulin (Homo sapiens) (UniProt P68371+Q9H4B7+P0DPH7+P68366+Q13509+Q71U36+P04350+Q3ZCM7+P07437+P68363+Q9BQE3+Q6PEY2+Q13885+Q9BVA1+Q9BUF5); experiment: Inhibition of microtubule depolymerization in human MCF7 cells at 1.8 nM measured after 12 hrs by immunostaining based confocal microscopic analysis; assay type: cell-based
[9] = Toxicity in human MCF7 cells xenografted in BALB/c nude mouse assessed as morphological changes in liver at 8 to 12 umol/kg, ip administered every two days for two weeks measured post last dose by H and E staining based histological analysis; assay type: organism-based; conditions: in vivo, 336 h, dose 8-12 µmol/kg, time 2 weeks
MCF7 [10] = experiment: Induction of apoptosis in human MCF7 cells xenografted in ip dosed BALB/c nude mouse assessed as up regulation of cleaved caspase-9 expression administered every two days for two weeks measured post last dose by Western blot analysis; assay type: functional, organism-based; conditions: dose 8-12 µmol/kg, time 2.0 weeks
[11] = Neurotoxicity in BALB/c mouse assessed as change in glutamine level at 12 umol/kg, ip administered every two days for 14 days measured post last dose by LC-MS analysis; assay type: toxicity, organism-based; conditions: in vivo, 336 h, dose 12 µmol/kg, time 14 day
[12] = molecular target: 72 kDa type IV collagenase (Homo sapiens, UniProt P08253); experiment: Drug metabolism in PBS buffer assessed as MMP2 (unknown origin)-mediated CPP-PTX formation at 0.5 uM measured after 2 hrs by LC-MS analysis; assay type: ADME
[13] = Neurotoxicity in BALB/c mouse assessed as change in acetylcholine level at 12 umol/kg, ip administered every two days for 14 days measured post last dose by LC-MS analysis; assay type: toxicity, organism-based; conditions: in vivo, 336 h, dose 12 µmol/kg, time 14 day
[14] = Toxicity in human MCF7 cells xenografted in BALB/c nude mouse assessed as morphological changes in kidney at 8 to 12 umol/kg, ip administered every two days for two weeks measured post last dose by H and E staining based histological analysis; assay type: organism-based; conditions: in vivo, 336 h, dose 8-12 µmol/kg, time 2 weeks
MCF7 [15] = experiment: Induction of apoptosis in human MCF7 cells xenografted in ip dosed BALB/c nude mouse assessed as up regulation of Bax expression administered every two days for two weeks measured post last dose by Western blot analysis; assay type: functional, organism-based; conditions: dose 8-12 µmol/kg, time 2.0 weeks
[16] = Drug conversion in liver of BALB/c nude mouse xenografted with human MCF7 cells assessed as T2-PTX formation at 8 to 12 umol/kg, ip measured after 2 hrs by LC-MS analysis; assay type: ADME, organism-based; conditions: in vivo, dose 8-12 µmol/kg
[17] = Drug conversion in heart of BALB/c nude mouse xenografted with human MCF7 cells assessed as PTX formation at 8 to 12 umol/kg, ip measured after 2 hrs by LC-MS analysis; assay type: ADME, organism-based; conditions: in vivo, dose 8-12 µmol/kg
A2780 = experiment: Cytotoxicity against human A2780 cells assessed as reduction in cell viability measured after 48 hrs by MTT assay; assay type: functional, cell-based; conditions: A2780, 48 h
MCF7 [18] = experiment: Antitumor activity against human MCF7 cells xenografted in BALB/c nude mouse assessed as reduction in tumor weight at 8 umol/kg, ip administered every two days for two weeks relative to control; assay type: functional; design: scale not given: the % may be the effect or the level left; conditions: dose 8 µmol/kg; time 2 weeks
[19] = Drug conversion in kidney of BALB/c nude mouse xenografted with human MCF7 cells assessed as PTX formation at 8 to 12 umol/kg, ip measured after 2 hrs by LC-MS analysis; assay type: ADME, organism-based; conditions: in vivo, dose 8-12 µmol/kg
[20] = Neurotoxicity in BALB/c mouse assessed as change in histidine level at 12 umol/kg, ip administered every two days for 14 days measured post last dose by LC-MS analysis; assay type: toxicity, organism-based; conditions: in vivo, 336 h, dose 12 µmol/kg, time 14 day
[21] = Neurotoxicity in BALB/c mouse assessed as change in dopamine level at 12 umol/kg, ip administered every two days for 14 days measured post last dose by LC-MS analysis; assay type: toxicity, organism-based; conditions: in vivo, 336 h, dose 12 µmol/kg, time 14 day
MCF7 [22] = experiment: Antimigratory activity against human MCF7 cells at 1.8 nM measured after 48 hrs by scratch wound-healing assay; assay type: functional, cell-based
[23] = Myelosuppression in BALB/c mouse assessed as change in granulocyte count at 12 umol/kg, ip administered every two days for 14 days measured post last dose; assay type: ADME, organism-based; conditions: in vivo, 336 h, dose 12 µmol/kg, time 14 day
[24] = Drug uptake in human MCF7 cells at 20 nM measured after 4 hrs in presence of MMP inhibitor ilomastat by LC-MS analysis; assay type: ADME, cell-based; conditions: mcf7, 4 h, 0.02 µM
[25] = Neurotoxicity in BALB/c mouse assessed as change in GABA level at 12 umol/kg, ip administered every two days for 14 days measured post last dose by LC-MS analysis; assay type: toxicity, organism-based; conditions: in vivo, 336 h, dose 12 µmol/kg, time 14 day
[26] = Drug conversion in heart of BALB/c nude mouse xenografted with human MCF7 cells assessed as T2-PTX formation at 8 to 12 umol/kg, ip measured after 2 hrs by LC-MS analysis; assay type: ADME, organism-based; conditions: in vivo, dose 8-12 µmol/kg
[27] = Drug conversion in tumor of BALB/c nude mouse xenografted with human MCF7 cells assessed as T2-PTX formation at 8 to 12 umol/kg, ip measured after 2 hrs by LC-MS analysis; assay type: ADME, organism-based, Neoplasm; conditions: in vivo, dose 8-12 µmol/kg
[28] = Drug conversion in tumor of BALB/c nude mouse xenografted with human MCF7 cells assessed as PTX formation at 8 to 12 umol/kg, ip measured after 2 hrs by LC-MS analysis; assay type: ADME, organism-based, Neoplasm; conditions: in vivo, dose 8-12 µmol/kg
[29] = Neurotoxicity in BALB/c mouse assessed as increase in pain sensitivity at 12 umol/kg, ip administered every two days for 14 days by hot water tail immersion test; assay type: toxicity, organism-based; conditions: in vivo, 336 h, dose 12 µmol/kg, time 14 day
[30] = Neurotoxicity in BALB/c mouse assessed as increase in pain sensitivity at 12 umol/kg, ip administered every two days for 14 days by cold water tail immersion test; assay type: toxicity, organism-based; conditions: in vivo, 336 h, dose 12 µmol/kg, time 14 day
MCF7 [31] = experiment: Cell cycle arrest in human MCF7 cells assessed as increase in accumulation at G2/M-phase at IC50 measured after 4 hrs by […] flow cytometry; assay type: functional

Sequence of 72 kDa type IV collagenase (P08253 whole entry): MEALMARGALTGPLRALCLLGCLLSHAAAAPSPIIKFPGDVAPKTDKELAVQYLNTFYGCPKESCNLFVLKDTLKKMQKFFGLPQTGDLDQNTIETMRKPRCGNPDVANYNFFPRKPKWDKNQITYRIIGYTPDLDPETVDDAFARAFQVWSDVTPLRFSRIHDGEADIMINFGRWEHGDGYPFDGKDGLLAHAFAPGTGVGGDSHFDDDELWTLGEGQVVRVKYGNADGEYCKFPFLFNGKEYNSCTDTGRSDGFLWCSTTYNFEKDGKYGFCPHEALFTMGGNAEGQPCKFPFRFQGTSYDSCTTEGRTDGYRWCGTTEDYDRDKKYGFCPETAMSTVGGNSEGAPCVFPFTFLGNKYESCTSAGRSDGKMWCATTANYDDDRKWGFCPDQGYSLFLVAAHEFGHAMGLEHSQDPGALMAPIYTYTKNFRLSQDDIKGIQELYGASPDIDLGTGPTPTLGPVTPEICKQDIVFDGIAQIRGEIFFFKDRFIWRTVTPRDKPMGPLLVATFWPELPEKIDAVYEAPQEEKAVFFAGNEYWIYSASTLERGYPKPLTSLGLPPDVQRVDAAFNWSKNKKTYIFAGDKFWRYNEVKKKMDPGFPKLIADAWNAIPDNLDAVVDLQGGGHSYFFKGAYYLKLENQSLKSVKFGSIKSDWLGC

- Drug metabolism [3]: Metabolite_Notdetected
- inhibition (Tubulin (Homo sapiens)): Active
- Drug metabolism [12]: Metabolite_Detected
- Drug metabolism [16]: Metabolite_Notdetected
- Drug metabolism [17]: Metabolite_Notdetected
- Drug metabolism [19]: Metabolite_Notdetected
- Drug uptake [24]: Active
- Drug metabolism [26]: Metabolite_Notdetected
- Drug metabolism [27]: Metabolite_Detected
- Drug metabolism [28]: Metabolite_Detected
SMILES: CC(=O)O[C@H]1C(=O)[C@@]2(C)[C@H]([C@H](OC(=O)c3ccccc3)[C@]3(O)C[C@H](OC(=O)[C@H](OC(=O)OCCSSC[C@H](N)C(=O)N[C@@H](CC(C)C)C(=O)N[C@@H](CC(C)C)C(=O)N[C@@H](CCCCN)C(=O)N[C@@H](CCCNC(=N)N)C(=O)N[C@@H](Cc4ccccc4)C(=O)N[C@@H](Cc4ccccc4)C(=O)N[C@@H](CCCCN)C(=O)N[C@@H](CCCCN)C(=O)N[C@@H](Cc4ccccc4)C(=O)NCC(=O)N[C@@H](C)C(=O)N[C@@H](CC(C)C)C(=O)NCC(=O)N[C@@H](CC(C)C)C(=O)N4CCC[C@H]4C(=O)NCC(=O)N4CCC[C@H]4C(=O)N[C@@H](CCCNC(=N)N)C(=O)N[C@@H](CC(C)C)C(=O)NCC(=O)N[C@@H](Cc4ccc(O)cc4)C(=O)N[C@@H](CO)C(=O)N[C@@H](Cc4c[nH]c5ccccc45)C(=O)N[C@@H](CCCCN)C(=O)NC(=O)C4CCC(=O)N4)[C@@H](NC(=O)c4ccccc4)c4ccccc4)C(C)=C1C3(C)C)[C@]1(OC(C)=O)CO[C@@H]1C[C@@H]2O (stereo partly drawn) (H-C(X1)LLKRFFKKFGALGLPGPRLGYSW-X2)
- Activity (MCF7 [1]): 90.1%
- Activity [2]: Non-Toxic
- Activity (MCF7 [4]): inactive
- Activity [5]: Non-Toxic
- Activity [6]: Non-Toxic
- Activity [7]: Non-Toxic
- Activity [8]: Non-Toxic
- Activity [9]: Non-Toxic
- Activity (MCF7 [10]): Dose-dependent effect
- Activity [11]: Non-Toxic
- Activity [13]: Non-Toxic
- Activity [14]: Non-Toxic
- Activity (MCF7 [15]): Dose-dependent effect
- IC50 (A2780): 8.3 nM
- Activity (MCF7 [18]): 67.1%
- Activity [20]: Non-Toxic
- Activity [21]: Non-Toxic
- Activity (MCF7 [22]): Active
- Activity [23]: Non-Toxic
- Activity [25]: Non-Toxic
- Activity [29]: Non-Toxic
- Activity [30]: Non-Toxic
- Activity (MCF7 [31]): Active
